Non-standard residues stand in square brackets, D forms with d. Residues, ends and D or L forms follow the SMILES beside them. No end group written: not given here. pS = N[C@@H](COP(=O)(O)O)C(=O)O
Experiments:
[1] = system: ovariectomized female Sprague Dawley rats; assay: Serum and urine chemistry in the ovariectomized rat osteoporosis model; assay type: in vivo; conditions: OVX rats; for Serum Ca^2+ / Urine Ca^2+ / Serum AP (serum alkaline phosphatase) / Serum Pi (serum inorganic phosphate): 200-208 μg/kg peptide oral daily for 84 days; for Serum Ca^2+ / Serum AP (serum alkaline phosphatase) / Serum Pi (serum inorganic phosphate): terminal sample Day 84
Excerpt: Ovariectomized rats were chosen for the efficacy study of a series of peptides. After a six (6) day quarantine/acclimation period, forty (40) ovariectomized female Sprague Dawley outbred (Crl:CD®IGS BR) rats were randomly allocated into five experimental groups of eight animals each. A sixth group was composed of eight sham-operated Sprague Dawley rats. The experimental design consisted of four test-article groups and two vehicle control groups (one ovariectomized and one sham-operated). Each rat received a single daily oral dose for 84 days of either 0.9% Sodium Chloride for Injection (controls) or 200-208 μg/kg of peptide as specified in Table 1. Doses were based upon a target dose of 50 μg/animal/day and group mean body weights determined at study initiation (Day 0). “Sham” indicates sham-operated rats; and “OVX” indicates ovariectomized rats. The dose range of 200-208 μg/kg/day employed in the study represents the target dose (50 μg/animal/day) in animals weighing […] at study initiation. The test samples for groups 1, 2, 3, and 4 were dissolved in 0.9% Sodium Chloride for injection and administered at once. All dosing was accomplished by oral gavage (dose volume 1.0-1.5 mL, adjusted weekly for bodyweight gain). Certified Rodent Diet #5002 (Purina Mills, Inc., St. Louis, Mo.) was provided during the quarantine/acclimation period and throughout the study. Clinical signs were observed once daily throughout the quarantine/acclimation and treatment periods. Individual body weights were recorded at the initiation of the dosing, once weekly throughout the treatment phase, and at necropsy. Animals were sacrificed approximately 24 hours after the administration of the final dose (Day 84). Terminal whole blood samples were collected from each animal for serum chemistry (i.e. measurement of serum calcium and phosphorus) evaluations via terminal cardiocentesis. Femurs were submitted for post-mortem bone mechanical strength and composition analysis.

[2] = system: ovariectomized female Sprague Dawley rats; assay: Three-point bending mechanical strength test of the femur in the ovariectomized rat osteoporosis model; assay type: in vivo; conditions: right femur, Day 84, vs. Group 5
Excerpt: Ovariectomized rats were chosen for the efficacy study of a series of peptides. After a six (6) day quarantine/acclimation period, forty (40) ovariectomized female Sprague Dawley outbred (Crl:CD®IGS BR) rats were randomly allocated into five experimental groups of eight animals each. A sixth group was composed of eight sham-operated Sprague Dawley rats. The experimental design consisted of four test-article groups and two vehicle control groups (one ovariectomized and one sham-operated). Each rat received a single daily oral dose for 84 days of either 0.9% Sodium Chloride for Injection (controls) or 200-208 μg/kg of peptide as specified in Table 1. Doses were based upon a target dose of 50 μg/animal/day and group mean body weights determined at study initiation (Day 0). “Sham” indicates sham-operated rats; and “OVX” indicates ovariectomized rats. The dose range of 200-208 μg/kg/day employed in the study represents the target dose (50 μg/animal/day) in animals weighing […] at study initiation. The test samples for groups 1, 2, 3, and 4 were dissolved in 0.9% Sodium Chloride for injection and administered at once. All dosing was accomplished by oral gavage (dose volume 1.0-1.5 mL, adjusted weekly for bodyweight gain). Certified Rodent Diet #5002 (Purina Mills, Inc., St. Louis, Mo.) was provided during the quarantine/acclimation period and throughout the study. Clinical signs were observed once daily throughout the quarantine/acclimation and treatment periods. Individual body weights were recorded at the initiation of the dosing, once weekly throughout the treatment phase, and at necropsy. Animals were sacrificed approximately 24 hours after the administration of the final dose (Day 84). Terminal whole blood samples were collected from each animal for serum chemistry (i.e. measurement of serum calcium and phosphorus) evaluations via terminal cardiocentesis. Femurs were submitted for post-mortem bone mechanical strength and composition analysis. The right femur of each animal was reserved for bone mechanical strength evaluation (i.e. three-point bending analysis). Femurs were placed on an apparatus in which two isolated points of the long bone were supported. Weight load was applied at the center of two supporting points toward the direction in which the bone is bent. […] Femurs were positioned with the anterior side toward the center load, and the posterior side toward the two supports. The loading was done in an Instron Model #1122 materials testing machine (Canton, Mass.). Testing was conducted with a displacement of 2.0 mm/minute. Load and displacement were recorded at 0.002 mm displacement intervals. Experiments were controlled using a computer-based data acquisition system running ASYST Scientific Software (Keithley-Metrabyte; Taunton, Mass.). The following data were generated: Maximum Load (in Newton, N); Initial Stiffness (in N/mm); Energy at Maximum (in Nmm) The value of the load was plotted against the deflection generating the load-deflection curve. Two points in the initial linear portion of the load-deflection curve were chosen by the operator at the time of testing. A line was constructed through the chosen points, the slope of which is the initial stiffness. The maximum load is the largest value of the load recorded during the flexural test. The energy at maximum is the area under the load-deflection curve up to the maximum load point.

Compound	Serum Ca^2+ [1] [mg/dL]	Urine Ca^2+ [1] [mg/dL]	Serum AP (serum alkaline phosphatase) [1] [U/L]	Serum Pi (serum inorganic phosphate) [1] [mg/dL]	Energy at maximum compared with saline-treated ovariectomized controls (FIG. 6) [2]	Initial bone stiffness compared with saline-treated ovariectomized controls (FIG. 4) [2]	Maximum load compared with saline-treated ovariectomized controls (FIG. 5) [2]	Serum phosphorus concentration compared with controls (FIG. 1) ([1]; oral daily for 84 days, Day 84, vs saline-treated OVX controls and sham-operated controls)
N[C@@H](COP(=O)(O)O)C(=O)NCC(=O)N[C@@H](COP(=O)(O)O)C(=O)NCC(=O)N[C@@H](COP(=O)(O)O)C(=O)NCC(=O)N[C@@H](COP(=O)(O)O)C(=O)NCC(=O)N[C@@H](COP(=O)(O)O)C(=O)NCC(=O)N[C@@H](COP(=O)(O)O)C(=O)NCC(=O)N[C@@H](COP(=O)(O)O)C(=O)NCC(=O)O [(Pse-Gly)7, Pse-Gly-Pse-Gly-Pse-Gly-Pse-Gly-Pse-Gly-Pse-Gly-Pse-Gly] (H-[pS]G[pS]G[pS]G[pS]G[pS]G[pS]G[pS]G-OH)	11.0 ± 0.5							
N[C@@H](CO)C(=O)NCC(=O)N[C@@H](CO)C(=O)NCC(=O)N[C@@H](CO)C(=O)NCC(=O)N[C@@H](CO)C(=O)NCC(=O)N[C@@H](CO)C(=O)NCC(=O)N[C@@H](CO)C(=O)NCC(=O)N[C@@H](CO)C(=O)NCC(=O)O [(Ser-Gly)7, Ser-Gly-Ser-Gly-Ser-Gly-Ser-Gly-Ser-Gly-Ser-Gly-Ser-Gly] (H-SGSGSGSGSGSGSG-OH)	10.8 ± 0.6	26.7 ± 22.9	134 ± 53	8.8 ± 1.0				
Ser-Gly-Ser-Gly-Pse-Gly-Pse-Gly-Pse-Gly-Pse-Gly-Pse-Gly (SGSG[pS]G[pS]G[pS]G[pS]G[pS]G) [(Ser-Gly)2(Pse-Gly)5, Linear peptide, Pse = O-phosphoserine]		29.5 ± 20.0	121 ± 30	9.2 ± 1.3	statistically significant increase	statistically significant increase	statistically significant increase	
Ser-Gly-Ser-Gly-Ser-Gly-Ser-Gly-Ser-Gly-Pse-Gly-Pse-Gly (SGSGSGSGSG[pS]G[pS]G) [(Ser-Gly)5(Pse-Gly)2, Linear peptide, Pse = O-phosphoserine]		26.6 ± 14.1	118 ± 18	7.9 ± 0.9	statistically significant increase	statistically significant increase	statistically significant increase	equivalent to or even lower than sham-operated controls

From patent publication US20050065068A1, “Methods and compositions for reducing serum phosphate levels” (priority 1999, published 2005)
